{"source": "patent US8697746B2", "about": "“Solid dispersion of alpha-ketoamide derivatives” (Senju Pharmaceutical Co., Ltd., priority 2010, dated 2014)", "assay": "Dissolved amount in water (Test Example 1)", "assay_type": "physicochemical", "details": "5 mg sample in 1 mL water, shaken, supernatant measured by HPLC", "description": "Each of the above-prepared Formulation 1 and the solid dispersions of Formulations 2 to 6 was separately dispersed in water. Sampling from each solution was performed at 15, 30, and 60 minutes after dispersion, and the concentration of ((1S)-1-((((1S)-1-benzyl-2,3-dioxo-3-(cyclopropylamino)propyl)amino) carbonyl)-3-methylbutyl)carbamic acid 5-methoxy-3-oxapentyl ester was measured according to the procedure shown below.\nTo 5 mg of each of the above-prepared Formulation 1 and the solid dispersions of Formulations 2 to 6, 1 mL of water was added and the mixture was shaken with a shaker (Labindustries Inc., Labquake Shaker L1237). Shaking was stopped when the predetermined sampling time elapsed, and centrifugation at 13000 rpm was immediately performed at 25° C. for 5 minutes with a centrifugal separator (Kendro Lab Products, Sorvall Biofuge Fresco) to give a supernatant. A sample solution was prepared by mixing 0.5 mL of methanol to 0.5 mL of the supernatant and then measured for concentration of ((1S)-1-((((1S)-1-benzyl-2,3-dioxo-3-(cyclopropylamino)propyl)amino)carbonyl)-3-methylbutyl) carbamic acid 5-methoxy-3-oxapentyl ester by HPLC (Shimadzu, 10A-VP system).\nDetector: ultraviolet absorptiometer (detection wavelength: 252 nm)\nColumn: YMC-Pack ODS-A (inside diameter: 4.6 mm, length: 250 mm, particle diameter: 5 μm, YMC)\nColumn temperature: constant temperature at around 40° C. […]", "data": [{"smiles": "COCCOCCOC(=O)N[C@@H](CC(C)C)C(=O)N[C@@H](Cc1ccccc1)C(=O)C(=O)NC1CC1", "note": "[((1S)-1-((((1S)-1-benzyl-2,3-dioxo-3-(cyclopropylamino)propyl)amino)carbonyl)-3-methylbutyl)carbamic acid 5-methoxy-3-oxapentyl ester]", "values": [{"measurement": "dissolved amount in water", "result": 0.45, "unit": "mg/mL"}]}]}
